Laboratory results reported in patent publication US11028088B2, “Modulators of BTK proteolysis and methods of use” (Yale University, priority 2018, dated 2021).

Biological target: C481S BTK (Homo sapiens, UniProt Q06187, C481S)
Assay: BTK and pBTK in primary CLL patient cells after ibrutinib relapse
Procedure: The cell suspension was kept on ice and agitated every 10 minutes for 30 minutes, followed by centrifugation for 10 minutes at 4° C. The supernatant was then collected and frozen at −80° C. until quantification. Protein quantification was performed for each supernatant using the BCA method (Thermo Scientific). Protein from each sample was added to 2× or 6× Laemmli's Sample buffer as previously described (41). 50 μg of each sample and a protein molecular weight marker were loaded onto 10% polyacrylamide gels and electrophoresed. Transfer of the proteins and blocking of membranes were performed as previously described (40).
The blots were washed with TBS-T (Tris-buffered saline-0.05% Tween) three times for 10 minutes with constant agitation, then incubated with HRP-conjugated anti-rabbit or anti-mouse IgG (Santa Cruz Biotechnologies) diluted 1:5,000 in Blotto for 2 hours at 4° C. with constant agitation. Prior to development, the blots were again washed with TBS-T three times for 10 minutes with constant agitation. Blots were developed using chemiluminescent substrate (WesternBright by Advansta or SuperSignal by ThermoScientific) and X-ray film (GeneMate) was used to perform autoradiography. Quantification was performed on the protein bands using computer densitometry (AlphaView software).

Sequence of C481S BTK (Q06187 whole entry C481S): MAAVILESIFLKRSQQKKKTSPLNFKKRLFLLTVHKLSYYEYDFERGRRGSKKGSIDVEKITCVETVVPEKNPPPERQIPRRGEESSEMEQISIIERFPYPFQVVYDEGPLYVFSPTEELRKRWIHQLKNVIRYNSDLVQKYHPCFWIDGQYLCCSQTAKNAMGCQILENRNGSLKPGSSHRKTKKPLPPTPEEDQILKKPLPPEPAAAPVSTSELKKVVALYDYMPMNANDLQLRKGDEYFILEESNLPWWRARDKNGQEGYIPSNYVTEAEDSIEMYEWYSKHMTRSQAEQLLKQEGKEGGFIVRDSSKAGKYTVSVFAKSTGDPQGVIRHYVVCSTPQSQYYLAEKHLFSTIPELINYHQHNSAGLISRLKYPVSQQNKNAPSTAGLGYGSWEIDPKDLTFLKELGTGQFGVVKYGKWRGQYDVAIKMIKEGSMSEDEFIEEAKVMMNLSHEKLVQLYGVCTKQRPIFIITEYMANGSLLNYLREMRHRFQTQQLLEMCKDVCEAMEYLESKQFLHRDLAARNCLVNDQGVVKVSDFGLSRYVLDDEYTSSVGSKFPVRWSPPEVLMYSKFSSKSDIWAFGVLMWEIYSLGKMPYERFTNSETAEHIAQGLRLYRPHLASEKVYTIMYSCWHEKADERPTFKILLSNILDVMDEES

degradation of C481S BTK (relapse primary patient sample, 1 μM 24 h): able to degrade
Compound: Nc1ncnc2c1c(-c1ccc(Oc3ccccc3)cc1)nn2C1CCN(CCOCCOCC(=O)Nc2ccc3c(c2)C(=O)N(C2CCC(=O)NC2=O)C3=O)CC1 (centres unmarked) [Compound 102, 2-[2-[2-[4-[4-amino-3-(4-phenoxyphenyl)pyrazolo[3,4-d]pyrimidin-1-yl]-1-piperidyl]ethoxy]ethoxy]-N-[2-(2,6-dioxo-3-piperidyl)-1,3-dioxo-isoindolin-5-yl]acetamide]
reduction of active, Y223 phosphorylated BTK (after relapse (C481S BTK), 1 μM): retained its ability to reduce the pool of active, Y223 phosphorylated BTK
